Results on 22 compounds are retold here after patent publication US8088808B2, “Substituted N-phenyl-bipyrrolidine carboxamides and therapeutic use thereof” (Sanofi, priority 2007, dated 2012).

Where a name gives a salt, the structure may show the parent alone.

The target in test [1] is rhesus (Macaca Mulatta) H3 receptor (Macaca mulatta, UniProt Q865E1). Briefly: Rhesus H3 radioligand binding assay ([3H]-Methylhistamine displacement, WGA SPA beads). The arrangement: species or system rhesus monkey (Macaca Mulatta). As to conditions: Table 2; procedure of Example 42. On the procedure: (Genbank #AY231164). Stably transfected cultures were amplified in tissue culture flasks by standard tissue culture methods and induced to express rhesus H3 by exposure to 500 ng/ml tetracycline (Cellgro) for 24 hours. After induction, cells were dissociated from flasks utilizing Cell Stripper (Cellgro). Cells were centrifuged (1K×g, 5 min) and pellet frozen in an ethanol-dry ice bath to disrupt cell membranes. Frozen cell pellet was re-suspended in 5 mM HEPES (pH 7.4, Invitrogen) at 10 ml/1000 cm2 of harvested cells. The cell suspension was drawn through an 18 gauge needle (2-3×) followed by a 23 gauge needle (2-3×) to further disrupt cell membranes. The cell suspension was centrifuged (40K×g, 30 min). Cell membrane pellet was re-suspended in 5 mM HEPES (pH 7.4, Invitrogen) at a final protein concentration of 10 mg/ml. Rhesus H3 membranes were stored under liquid nitrogen prior to use in [3H]-Methylhistamine and GTPγS radioligand binding assays.
rhesus (Macaca Mulatta) H3 receptor, sequence (Q865E1 1-445): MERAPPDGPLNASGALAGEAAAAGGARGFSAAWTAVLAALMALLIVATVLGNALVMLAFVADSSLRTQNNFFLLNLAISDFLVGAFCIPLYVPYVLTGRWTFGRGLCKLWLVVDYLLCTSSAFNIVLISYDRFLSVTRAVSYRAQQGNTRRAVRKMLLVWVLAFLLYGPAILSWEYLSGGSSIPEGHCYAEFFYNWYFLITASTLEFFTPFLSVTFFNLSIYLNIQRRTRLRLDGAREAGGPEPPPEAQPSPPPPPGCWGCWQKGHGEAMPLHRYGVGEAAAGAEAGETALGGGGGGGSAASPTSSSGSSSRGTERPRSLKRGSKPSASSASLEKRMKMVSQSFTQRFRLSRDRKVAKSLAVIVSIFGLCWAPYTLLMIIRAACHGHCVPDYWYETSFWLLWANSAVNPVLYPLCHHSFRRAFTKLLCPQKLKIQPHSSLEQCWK
Rhesus H3 radioligand binding assay was performed using rhesus H3 receptor membranes (prepared as described above), [3H]-Methylhistamine (Perkin Elmer) and WGA SPA beads (wheat germ agglutinin scintillation proximity assay) beads (Amersham). The assay was performed in 96-well Opti-Plates (Packard). Each reaction contained 50 μl rhesus H3 membranes (20-30 μg total protein), 50 μl WGA SPA beads (0.1 μg) and 50 μl of 83 Ci/mmol [^3H]-Methylhistamine (final concentration 2 nM) and 50 μl of tested compound. The compounds of this invention and/or vehicle were diluted with binding buffer from 10 mM DMSO stocks. Assay plates were sealed with TopSeal (Perkin Elmer) and mixed on shaker (25° C., 1 hour). Assay plates were read on TopCount scintillation counter (Packard). Results were analyzed by Hill transformation and Ki values were determined by Cheng-Prusoff equation.

Test [2] addresses MCH receptor (Homo sapiens, UniProt Q99705). Briefly: MCH receptor [125J]-ligand binding filtration assay. The following applies: 10 μM test compound; percent inhibition of ligand binding. On the procedure: The activity of the compounds of this invention at the MCH receptor site, if any was measured by the procedures as set forth below. • Test Compounds The compounds of this invention were stored in a 96-well microtiter plates (1 μL, 10 mM, 100% DMSO). Each of the test sample was diluted with 249 μL of 100% DMSO (dilution 1:250). […] Blank: Assay buffer containing 0.4% DMSO were transferred to the dilution microtiter plates for blanks • Assay Procedure: The filter plates with […] of 0.5% PEI-solution/well were incubated for 2 hours at room temperature. PEI was removed by vacuum filtration just before pipetting (Univac Polyfiltronic/Whatman). The solution of the compound as prepared above (50 μL), or MCH ([…]) or Puffer/DMSO (positive control) were added to 96-well round bottom microtiter plate. Then 50 μl of [^125J]-ligand solution was added followed by 100 μl of membrane suspension. The plates were closed with the lids, and incubated for 60 min. at 25° C. The samples were transferred to GF/B filter plate. The reaction mixture was removed by vacuum filtration, washed 4× with 300 μL ice-cold washing buffer and the washing solution was removed by vacuum filtration. The rubber layer at the bottom of the plate was then removed and the filters were dried over night at room temperature. 25 μL of scintillation cocktail was added and the plates were sealed and, plate frames were added and incubated for 1 hour at room temperature. The radioactivity was then measured, settings ^125J standard, 30 sec./well.

MCH receptor, sequence (Q99705 whole entry): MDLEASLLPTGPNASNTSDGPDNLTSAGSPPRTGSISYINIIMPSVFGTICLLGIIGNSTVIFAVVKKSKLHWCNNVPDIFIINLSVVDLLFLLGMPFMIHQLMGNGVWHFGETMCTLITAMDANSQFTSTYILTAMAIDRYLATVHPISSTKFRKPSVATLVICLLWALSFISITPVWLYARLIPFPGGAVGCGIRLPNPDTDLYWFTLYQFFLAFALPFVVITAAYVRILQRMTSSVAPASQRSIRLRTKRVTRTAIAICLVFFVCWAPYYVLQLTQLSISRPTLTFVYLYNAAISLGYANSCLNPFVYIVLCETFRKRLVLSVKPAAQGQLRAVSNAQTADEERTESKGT

As usually defined, the Ki is the dissociation constant of the complex between target and ligand, obtained from inhibition or displacement. As a reminder, the inhibition is the relative decrease from the control value, in per cent. As for `Cc1cc(C(=O)Nc2ccc(N3CC[C@H](N4CCC[C@@H]4C)C3)c(C)c2)n[nH]1` (stereo in doubt) [Example 22, 5-Methyl-1H-pyrazole-3-carboxylic acid [3-methyl-4-(2-methyl-[1,3′]bipyrrolidinyl-1′-yl)-phenyl]-amide trifluoroacetate], the Ki in test [1] worked out at 17.3 nM. Moreover, the inhibition at 10 µM in test [2] is 5.6%.

In turn, `Cc1cc(N2CC[C@H](N3CCC[C@@H]3C)C2)ccc1NC(=O)c1c(C)noc1C` [Example 1, 3,5-Dimethyl-isoxazole-4-carboxylic acid [2-methyl-4-(2(2S)-methyl-[1,3′(3′S)]bipyrrolidinyl-1′-yl)-phenyl]-amide] yielded a Ki in test [1] of 0.4 nM. Further, the inhibition at 10 µM in test [2] came out at 0.7%.

For the compound `Cc1cc(N2CC[C@H](N3CCC[C@@H]3C)C2)ccc1NC(=O)C1CCCCC1` [Example 2, Cyclohexanecarboxylic acid [2-methyl-4-(2S-methyl-[1,3′S]bipyrrolidinyl-1′-yl)-phenyl]-amide trifluoro-acetate], the Ki in test [1] was 0.4 nM. The inhibition at 10 µM in test [2] was -2.1%.

Regarding `Cc1cc(N2CC[C@H](N3CCC[C@@H]3C)C2)ccc1NC(=O)C1CC2CCC1C2` (stereo partly drawn) [Example 3, Bicyclo[2.2.1]heptane-2-carboxylic acid [2-methyl-4-(2S-methyl-[1,3′S]bipyrrolidinyl-1′-yl)-phenyl]-amide trifluoro acetate], in test [1], the affinity corresponds to a Ki of 0.6 nM. Further, the inhibition at 10 µM in test [2] is -0.8%.

Regarding `Cc1cc(N2CC[C@H](N3CCC[C@@H]3C)C2)ccc1NC(=O)C1CCOCC1` [Example 4, Tetrahydro-pyran-4-carboxylic acid [2-methyl-4-(2(2S)-methyl-[1,3′(3′S)]bipyrrolidinyl-1′-yl)-phenyl]-amide], the affinity in test [1], expressed as Ki, was 1 nM. In addition, the inhibition at 10 µM in test [2] is -1.6%.

In test [1], `Cc1cc(C(=O)Nc2ccc(N3CC[C@H](N4CCC[C@@H]4C)C3)cc2C)on1` [Example 5, 3-Methyl-isoxazole-5-carboxylic acid [2-methyl-4-(2S-methyl-[1,3′ S]bipyrrolidinyl-1′-yl)-phenyl]-amide trifluoro-acetate] gave an inhibitory constant (Ki) of 1.1 nM. For the same compound, the inhibition at 10 µM in test [2] was 3.1%.

In turn, `Cc1cc(NC(=O)c2c(C)noc2C)ccc1N1CCC(N2CCCC2C)C1` (centres unmarked) [Example 7, 3,5-Dimethyl-isoxazole-4-carboxylic acid [3-methyl-4-(2-methyl-[1,3′]bipyrrolidinyl-1′-yl)-phenyl]-amide trifluoro-acetate] came in with a Ki in test [1] of 3.2 nM. Besides, the inhibition at 10 µM in test [2] is 5%.

Turning to `Cc1cc(N2CCC(N3CCCC3C)C2)ccc1NC(=O)CC1CCCC1` (centres unmarked) [Example 8, 2-Cyclopentyl-N-[2-methyl-4-(2-methyl-[1,3′]bipyrrolidinyl-1′-yl)-phenyl]-acetamide trifluoro-acetate], in test [1], the Ki worked out at 8.4 nM. Further, the inhibition at 10 µM in test [2] stood at 1.4%.

The compound `CC1CCCN1C1CCN(c2ccc(NC(=O)C3CCOCC3)cc2)C1` (centres unmarked) [Example 9, Tetrahydro-pyran-4-carboxylic acid [4-(2-methyl-[1,3′]bipyrrolidinyl-1′-yl)-phenyl]-amide trifluoro-acetate] gave an inhibitory constant (Ki) in test [1] of 8.7 nM. The inhibition at 10 µM in test [2] is -2.8%.

Compound `Cc1cc(N2CCC(N3CCCC3C)C2)ccc1NC(=O)C1CC1` (centres unmarked) [Example 10, Cyclopropane carboxylic acid [2-methyl-4-(2-methyl-[1,3′]bipyrrolidinyl-1′-yl)-phenyl]-amide trifluoro-acetate] had an inhibition constant (Ki) in test [1] of 9.6 nM. Besides, in test [2], the inhibition at 10 µM was determined as 4%.

On to `Cc1cc(NC(=O)C2CCOCC2)ccc1N1CCC(N2CCCC2C)C1` (centres unmarked) [Example 11, Tetrahydro-pyran-4-carboxylic acid [3-methyl-4-(2-methyl[1,3′]bipyrrolidinyl-1′-yl)-phenyl]-amide trifluoro-acetate], for which the Ki in test [1] came out at 17 nM. Moreover, the inhibition at 10 µM in test [2] came out at 2.7%.

In test [1], `Cc1cc(N2CCC(N3CCCC3C)C2)ccc1NC(=O)C1C[C@@H]2CC[C@H]1C2` (stereo partly drawn) [Example 12, (1S,4R)-Bicyclo[2.2.1]heptane-2-carboxylic acid [2-methyl-4-(2-methyl-[1,3′]bipyrrolidinyl-1′-yl)-phenyl]-amide trifluoro-acetate] registered an inhibition constant Ki of 19.9 nM. Moreover, the inhibition at 10 µM in test [2] was -2.8%.

The compound `CC1CCCN1C1CCN(c2ccc(NC(=O)c3cn[nH]c3)cc2)C1` (centres unmarked) [Example 13, 1H-Pyrazole-4-carboxylic acid [4-(2-methyl-[1,3′]bipyrrolidinyl-1′-yl)-phenyl]-amide trifluoro-acetate] showed a Ki in test [1] of 22.1 nM. Besides, the inhibition at 10 µM in test [2] was determined as 4.8%.

Consider `Cc1cc(C(=O)Nc2ccc(N3CC[C@H](N4CCC[C@@H]4C)C3)cc2C)n[nH]1` [Example 14, 5-Methyl-1H-pyrazole-3-carboxylic acid [2-methyl-4-(2(2S)-methyl-[1,3′(3′S)]bipyrrolidinyl-1′-yl)-phenyl]-amide], for which affinity in test [1] was put at a Ki of 4.7 nM. Further, in test [2], the inhibition at 10 µM was found to be 28.3%.

`Cc1cc(N2CC[C@H](N3CCC[C@@H]3C)C2)ccc1NC(=O)c1cc(C)n(C)n1` [Example 15, 1,5-Dimethyl-1H-pyrazole-3-carboxylic acid [2-methyl-4-(2(2S)-methyl-[1,3′(3′S)]bipyrrolidinyl-1′-yl)-phenyl]-amide hydrochloride] gave an inhibitory constant (Ki) in test [1] of 10.8 nM. For the same compound, in test [2], the inhibition at 10 µM came to 10.3%.

Compound `Cc1cc(N2CC[C@H](N3CCC[C@@H]3C)C2)ccc1NC(=O)C1C(C)(C)C1(C)C` [Example 16, 2,2,3,3-Tetramethyl-cyclopropanecarboxylic acid [2-methyl-4-(2(S)-methyl-[1,3′(S)]bipyrrolidinyl-1′-yl)-phenyl]-amide trifluoroacetate] gave a Ki in test [1] of 0.8 nM. In addition, the inhibition at 10 µM in test [2] came out at 5.8%.

Compound `Cc1cc(N2CCC(N3CCCC3C)C2)ccc1NC(=O)C1C(C)(C)C1(C)C` (centres unmarked) [Example 17, 2,2,3,3-Tetramethyl-cyclopropanecarboxylic acid [2-methyl-4-(2-methyl-[1,3′]bipyrrolidinyl-1′-yl)-phenyl]-amide trifluoroacetate] displayed a Ki in test [1] of 37.3 nM. Further, the inhibition at 10 µM in test [2] is 11.5%.

In test [1], `Cc1cc(N2CCC(N3CCCC3C)C2)ccc1NC(=O)c1c(C)noc1C` (centres unmarked) [Example 18, 3,5-Dimethyl-isoxazole-4-carboxylic acid [2-methyl-4-(2-methyl-[1,3′]bipyrrolidinyl-1′-yl)-phenyl]-amide trifluoroacetate] yielded a Ki of 2.6 nM. Besides, the inhibition at 10 µM in test [2] is -2%.

Consider `Cc1cc(N2CC[C@H](N3CCC[C@@H]3C)C2)ccc1NC(=O)c1ccco1` [Example 19, Furan-2-carboxylic acid [2-methyl-4-(2(S)-methyl-[1,3′(S)]bipyrrolidinyl-1′-yl)-phenyl]-amide trifluoroacetate], for which, in test [1], the affinity, expressed as Ki, was 3.9 nM. The inhibition at 10 µM in test [2] was determined as 6%.

In the case of `Cc1cc(C(=O)Nc2ccc(N3CCC(N4CCCC4C)C3)cc2C)n[nH]1` (centres unmarked) [Example 20, 5-Methyl-1H-pyrazole-3-carboxylic acid [2-methyl-4-(2-methyl-[1,3′]bipyrrolidinyl-1′-yl)-phenyl]-amide trifluoroacetate], the inhibition constant Ki in test [1] came out at 30.9 nM. Moreover, the inhibition at 10 µM in test [2] was found to be 24.3%.

For the compound `Cc1cc(N2CC[C@H](N3CCC[C@@H]3C)C2)ccc1NC(=O)CC1CCCC1` [Example 21, 2-Cyclopentyl-N-[2-methyl-4-(2(S)-methyl-[1,3′(S)]bipyrrolidinyl-1′-yl)-phenyl]-acetamide trifluoroacetate], the Ki in test [1] amounted to 0.9 nM. For the same compound, in test [2], the inhibition at 10 µM came to 1.9%.

Compound `Cc1cc(NC(=O)C2C[C@@H]3CC[C@H]2C3)ccc1N1CCC(N2CCCC2C)C1` (stereo partly drawn) [Example 23, (1S,4R)-Bicyclo[2.2.1]heptane-2-carboxylic acid [3-methyl-4-(2-methyl-[1,3′]bipyrrolidinyl-1′-yl)-phenyl]-amide trifluoroacetate] came in with an inhibitory constant (Ki) in test [1] of 130 nM. For the same compound, the inhibition at 10 µM in test [2] came to 11.2%.
